{"source": "patent US20030148963A1", "about": "(priority 2000, published 2003)", "key": {"TNF": {"tested_on": "TNF", "format": "cell-based, NMRI mice", "conditions": "24 h supernatant, mean ± SEM", "experimental": "Spleens were obtained from healthy NMRI mice. […] The cells (2×10^61/Ml) were cultured in Iscove's complete medium (10% FCS, 5×10^−5 M 2-mercaptoethanol, 2 mM L-glutamine, and 50 μg/ml gentamicin). […] To determine the proliferative response, the cells were cultured in 96-well plates (Nunc) for 3 days. The cultures were pulsed with 1 μCi of (^3H)TdR (Amersham, Bucks, UK) 12 h before harvest and calculation of TdR uptake in a beta counter. The levels of TNF.- were determined using sandwich enzyme-linked immunosorbent assays (ELISA) kit from R&D Systems Minneapolis, Minn.)."}, "IFN-γ": {"tested_on": "IFN-γ", "assay": "Serum IFN-γ in CII immunized mice (ELISA)", "format": "in vivo, B10.QxDBA/1 female mice", "conditions": "serum at end of experiment, mean ± SEM", "experimental": "For quantification of serfu CII antibodies, 96-well plates (Nunc, Roskilde, Denmark) were coated overnight at 4° C. with 10 μg/ml of native CII. Standards and samples were diluted in 0.5% BSA-PBS. Biotinylated F(ab/)2 fragments of goat anti-mouse IgG (Jackson ImmunoResearch Laboratories, West Grove, Pa.) was used as secondary antibody. Development was performed using horseradish peroxidase 0.5 μg/ml and 2.5 mg of the enzyme substrate 2,2-azino-bis-(3-ethylbenzothiazoline sulfonic acid) (Sigma) per mal in citrate buffer (pH 4.2), containing 0.0075% H2O2. The absorbance was measured at 405 nm in a SPECTRAmax spectrophotometer (Molecular Devices, Calif.). IFN-γ levels in sera were quantified with an ELISA system previously described (13). Ninety-six well plates (Nunc) were coated with 2 μg/ml of rat anti-mouse IFN-γ mab (Pharmingen, San Diego, Calif.). Sera, recombinant IFN-γ (Genzyme, Cambridge, Mass.), biotinylated antibodies were all diluted in 0.05 M Tris pH 7.4+0.015 M NaCl. A biotinylated anti mouse IFN-γ antibody (2 μg/ml) (Pharmigen) was used as secondary antibody. After incubation with extravidin alkaline phosphatase 0.5 ?g/ml and alkaline phosphatase substrate 1 mg/ml (Sigma) the absorbance was measured at 405 nm. Interleukin 6 (IL-6) levels in serum and supernatants were measured by a bioassay using cell line B13.29, subclone B9, which is dependent on IL-6 for growth. […]"}, "MIP-1α": {"tested_on": "MIP-1α", "assay": "Serum MIP-1α in CII immunized mice (ELISA)", "format": "in vivo, B10.QxDBA/1 female mice", "conditions": "serum at end of experiment, mean ± SEM", "experimental": "(§1) Levels of TNF, IL-1b, RANTES, and macrophage inflammatory protein (MIP)-1α were determined using sandwich ELISA from R&D Systems (Minneapolis, Minn.)."}, "spleen mononuclear cells": {"tested_on": "spleen mononuclear cells", "format": "cell-based", "conditions": "spleen cells of mice given 12.5 mg/kg 4 days a week for 4 weeks"}, "RANTES": {"tested_on": "RANTES", "assay": "RANTES release by IC-21 macrophage cell line", "format": "cell-based, murine", "conditions": "data not shown", "experimental": "as §1\nThese cells display many typical features of the macrophage phenotype and are therefore a suitable model for studying cytoline and chemokine release during inflammation (16). The cells were maintained in continous culture using RPMI-1640 supplemented with 10% FCS, L-glutamine, and gentamycin. When the cells had grown to about 70% confluency, they were seeded into a 24-well-plate (Nunc) at a concentration of 1×10^5 per well and incubated at 37° C. in 5% CO2 for 24 h. […] After 24 h of incubation, the cells were washed once with PBS, and reincubated with medium containing different concentrations (1, 10, 100, 1000 ng/ml) of LPS (Difco) and IFN-γ (10, 50, 100 u/nml). The interferon-γ was purified from the supernatants from Chinese hanater ovary (CHO) cells transfected with the murine IFN-γ gene (hybridoma kindly provided by Dr. Morris, Department of Biological Sciences, University of Warwick, Coventry, UK). After 2 and 24 h of incubation the supernatants were collected and stored at −20° C. until analysis."}, "[1]": {"conditions": "Etoposide-treated (from day 40)"}}, "note": "Like-named read-outs stand apart in the source and are kept apart here. Marks after values point to notes of the source that are not given here.", "data": [{"smiles": "COc1cc([C@@H]2c3cc4c(cc3[C@@H](O[C@@H]3O[C@@H]5CO[C@@H](C)O[C@H]5[C@H](O)[C@H]3O)[C@H]3COC(=O)[C@H]23)OCO4)cc(OC)c1O", "note": "[Etoposide]", "values": [{"measurement": "TNF, ConA stimulated", "setting": "TNF; etoposide 1 μM, four mice", "result": "167 ± 29", "unit": "pg/mL"}, {"measurement": "TNF, TSST-1 stimulated", "setting": "TNF; etoposide 1 μM, four mice", "result": "64 ± 20", "unit": "pg/mL"}, {"measurement": "TNF, ConA stimulated", "setting": "TNF; etoposide 10 μM", "result": "66 ± 19^b pg/ml"}, {"measurement": "TNF, TSST-1 stimulated", "setting": "TNF; etoposide 10 μM", "result": "38 ± 8^b pg/ml"}, {"measurement": "TNF, ConA stimulated", "setting": "TNF; etoposide 100 μM", "result": "10 ± 1^b pg/ml"}, {"measurement": "TNF, TSST-1 stimulated", "setting": "TNF; etoposide 100 μM", "result": "16 ± 3^b pg/ml"}, {"measurement": "IFN-g", "setting": "IFN-γ; Etoposide-pretreated", "result": "1848 ± 248^c u/ml"}, {"measurement": "IFN-g", "setting": "IFN-γ; [1]", "result": "2094 ± 199^b u/ml"}, {"measurement": "MIP-1a", "setting": "MIP-1α; Etoposide-pretreated", "result": "3.0 ± 0.5^c pg/ml"}, {"measurement": "MIP-1a", "setting": "MIP-1α; [1]", "result": "2.9 ± 0.3^c pg/ml"}, {"measurement": "Counts per minute (CPM), TSST-1", "setting": "spleen mononuclear cells; first value of merged cell", "result": "1117 ± 26", "unit": "CPM"}, {"measurement": "Counts per minute (CPM), Con A", "setting": "spleen mononuclear cells; mean ± SEM, 4 mice", "result": "2183 ± 214^a) CPM"}, {"measurement": "Counts per minute (CPM), 0 (unstimulated)", "setting": "spleen mononuclear cells; second value of merged cell", "result": "156 ± 9", "unit": "CPM"}, {"measurement": "RANTES release", "setting": "RANTES", "result": "upregulated"}]}]}
